Earlier results on two compounds are cited in patent publication US10015963B2, “Microemulsions of lipidated glycines and phenoxy ethanol for preservation of personal care products” (GALAXY SURFACTANTS LTD., priority 2014, dated 2018).

The conditions of series [1]: carboxyl group.
For series [2] the following is noted: at room temperature.

SMILES strings stand for the structures.

As for `CCCCCCCC(=O)NCC(=O)O` [capryloyl glycine, N-capryloyl glycine], the pKa in series [1] was 4.05. For `OCCOc1ccccc1` [phenoxy ethanol, 2-phenoxy ethanol], in series [2], the “phenoxy ethanol solubilized in water” value is 2.3%.
